According to PubChem BioAssay AID220 (DTP/NCI, 2004):
Where “and” joins values, the source holds several entries; their conditions need not be identical. Identical values can stand only once. Inconclusive results are not listed.

Test system: CD8F1 mice, subcutaneous mammary adenocarcinoma, T/C%
Experiment: NCI In Vivo Anticancer Drug Screen. Data for tumor model Mammary Adenocarcinoma CD8F1 (subcutaneous) in CD8F1
Conditions: higher = larger tumour
Outline: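 Compound-treated versus vehicle-treated mice with transplantable tumors; survival or tumor size compared as T/C.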

[1] = endpoint: median tumor weight (est.), dose: 50.0 mg/kg/injection, schedule: Q07DX005 (ip), vehicle: suspension in saline
[2] = endpoint: median tumor weight (est.), dose: 100.0 mg/kg/injection, schedule: Q07DX005 (ip), vehicle: saline
[3] = endpoint: median tumor weight (est.), dose: 100.0 mg/kg/injection, schedule: Q07DX005 (ip), vehicle: suspension in saline
[4] = endpoint: median tumor weight (est.), dose: 200.0 mg/kg/injection, schedule: Q07DX005 (ip), vehicle: saline
[5] = endpoint: median tumor weight (est.), dose: 200.0 mg/kg/injection, schedule: Q07DX005 (ip), vehicle: suspension in saline
[6] = endpoint: median tumor weight (est.), dose: 400.0 mg/kg/injection, schedule: Q07DX005 (ip), vehicle: suspension in saline
[7] = endpoint: median tumor weight change, dose: 500.0 mg/kg/injection, schedule: Q01DX001 (ip), vehicle: saline with Tween-80

N#C[C@H](OC1OC(COC2OC(CO)C(O)C(O)C2O)C(O)C(O)C1O)c1ccccc1 (stereo partly drawn)
T/C [1]: 75 % of control
T/C [2]: 76 % of control
T/C [3]: 77 % of control
T/C [4]: 95 % of control
T/C [5]: 171 % of control
T/C (endpoint: median tumor weight (est.), dose: 400.0 mg/kg/injection, schedule: Q07DX005 (ip), vehicle: saline): 83 % of control
T/C [6]: 100 % of control
T/C (endpoint: median tumor weight (est.), dose: 800.0 mg/kg/injection, schedule: Q07DX005 (ip), vehicle: saline): 96 % of control
T/C (endpoint: median tumor weight (est.), dose: 1600.0 mg/kg/injection, schedule: Q07DX005 (ip), vehicle: saline): 41 % of control
T/C (endpoint: median tumor weight (est.), dose: 1600.0 mg/kg/injection, schedule: Q07DX005 (ip), vehicle: suspension in saline): 413 % of control

COc1ccc2c(c1)C(O)(CN)CCCCC(OC)CCCC2 (stereo not drawn)
T/C (endpoint: median tumor weight change, dose: 62.5 mg/kg/injection, schedule: Q01DX001 (ip), vehicle: Klucel (hydroxypropylcellulose) (HPC)): 121 % of control

C=C(C)C12CC(C)C34OC5(CCCCCCCC(C)C6C(C)C(OC(=O)c7ccccc7)C(O)(C(O)C7(COC(=O)CCCCCCCCCCCCCCC)OC7C3C1O5)C64)O2 (stereo not drawn)
T/C (endpoint: mean tumor weight, dose: 25.0 micrograms/kg/injection, schedule: Q01DX009 (ip), vehicle: Klucel (hydroxypropylcellulose) (HPC)): 82 % of control
T/C (endpoint: mean tumor weight, dose: 50.0 micrograms/kg/injection, schedule: Q01DX009 (ip), vehicle: Klucel (hydroxypropylcellulose) (HPC)): 150 % of control
T/C (endpoint: mean tumor weight, dose: 100.0 micrograms/kg/injection, schedule: Q01DX009 (ip), vehicle: Klucel (hydroxypropylcellulose) (HPC)): 114 % of control
T/C (endpoint: mean tumor weight, dose: 200.0 micrograms/kg/injection, schedule: Q01DX009 (ip), vehicle: Klucel (hydroxypropylcellulose) (HPC)): 151 % of control

NC1=NCN(C2OC(CO)C(O)C2O)C(=O)N1 (stereo not drawn)
T/C (endpoint: median tumor weight (est.), dose: 25.0 mg/kg/injection, schedule: Q07DX004 (ip), vehicle: saline): 74 % of control
T/C (endpoint: median tumor weight (est.), dose: 25.0 mg/kg/injection, schedule: Q07DX005 (ip), vehicle: suspension in saline): 59 % of control
T/C (endpoint: median tumor weight (est.), dose: 50.0 mg/kg/injection, schedule: Q07DX004 (ip), vehicle: saline): 76 % of control
T/C [1]: 45 % of control
T/C (endpoint: median tumor weight (est.), dose: 100.0 mg/kg/injection, schedule: Q07DX004 (ip), vehicle: saline): 107 % of control
T/C [3]: 56 % of control
T/C (endpoint: median tumor weight (est.), dose: 200.0 mg/kg/injection, schedule: Q07DX004 (ip), vehicle: saline): 72 % of control
T/C [5]: 61 % of control
T/C (endpoint: median tumor weight (est.), dose: 400.0 mg/kg/injection, schedule: Q07DX004 (ip), vehicle: saline): 49 % of control
T/C [6]: 34 % of control
T/C (endpoint: median tumor weight (est.), dose: 800.0 mg/kg/injection, schedule: Q07DX004 (ip), vehicle: saline): 35 % of control
T/C (endpoint: median tumor weight (est.), dose: 800.0 mg/kg/injection, schedule: Q07DX005 (ip), vehicle: suspension in saline): 13 % of control

COc1ccc(/C=C/C(=O)c2cc(C(=O)O)c(OC)cc2OC)cc1OC
T/C (endpoint: median tumor weight (est.), dose: 12.5 mg/kg/injection, schedule: Q07DX005 (ip), vehicle: saline): 326 % of control
T/C (endpoint: median tumor weight (est.), dose: 25.0 mg/kg/injection, schedule: Q07DX005 (ip), vehicle: saline): 117 % of control
T/C (endpoint: median tumor weight (est.), dose: 50.0 mg/kg/injection, schedule: Q07DX005 (ip), vehicle: saline): 192 % of control
T/C [1]: 85 % of control
T/C [2]: 84 % of control
T/C [3]: 107 % of control
T/C [4]: 42 % of control
T/C [5]: 53 % of control

CN=S(=O)(OCCCCCOS(=O)(=NC)c1ccccc1)c1ccccc1 (stereo not drawn)
T/C (endpoint: median tumor weight change, dose: 62.0 mg/kg/injection, schedule: Q01DX001 (ip), vehicle: saline with Tween-80): 121 % of control
T/C (endpoint: median tumor weight change, dose: 62.5 mg/kg/injection, schedule: Q01DX001 (ip), vehicle: saline with Tween-80): 59 % of control
T/C (endpoint: median tumor weight change, dose: 250.0 mg/kg/injection, schedule: Q01DX001 (ip), vehicle: saline with Tween-80): 63 % of control and 83 % of control
T/C [7]: 20 % of control

O=c1n(CC2CO2)c(=O)n(CC2CO2)c(=O)n1CC1CO1 (stereo not drawn)
T/C (endpoint: median tumor weight (est.), dose: 12.5 mg/kg/injection, schedule: Q07DX004 (ip), vehicle: saline with Tween-80): 64 % of control
T/C (endpoint: median tumor weight (est.), dose: 12.5 mg/kg/injection, schedule: Q07DX005 (ip), vehicle: saline with Tween-80): 17 % of control
T/C (endpoint: median tumor weight (est.), dose: 12.5 mg/kg/injection, schedule: Q07DX005 (ip), vehicle: suspension in saline): 69 % of control and 55 % of control
T/C (endpoint: median tumor weight (est.), dose: 25.0 mg/kg/injection, schedule: Q07DX004 (ip), vehicle: saline with Tween-80): 79 % of control
T/C (endpoint: median tumor weight (est.), dose: 25.0 mg/kg/injection, schedule: Q07DX005 (ip), vehicle: saline with Tween-80): 4 % of control
T/C (endpoint: median tumor weight (est.), dose: 50.0 mg/kg/injection, schedule: Q07DX004 (ip), vehicle: saline with Tween-80): 42 % of control
T/C [1]: 12 % of control and 35 % of control

O=C(O)C1(C(=O)O)CCC1.[NH2-].[NH2-].[Pt+2]
T/C (endpoint: median tumor weight change, dose: 6.25 mg/kg/injection, schedule: Q01DX001 (ip), vehicle: dextrose): 98 % of control
T/C (endpoint: median tumor weight change, dose: 12.5 mg/kg/injection, schedule: Q01DX001 (ip), vehicle: dextrose): 80 % of control
T/C (endpoint: median tumor weight change, dose: 25.0 mg/kg/injection, schedule: Q01DX001 (ip), vehicle: dextrose): 52 % of control

CNC(=O)OCc1c(COC(=O)NC)c(-c2ccc(Cl)c(Cl)c2)n2c1Cc1ccccc1C2
T/C (endpoint: median tumor weight change, dose: 125.0 mg/kg/injection, schedule: Q01DX001 (ip), vehicle: distilled water + Tween-80): 77 % of control
T/C (endpoint: median tumor weight change, dose: 250.0 mg/kg/injection, schedule: Q01DX001 (ip), vehicle: distilled water + Tween-80): 67 % of control
T/C (endpoint: median tumor weight change, dose: 500.0 mg/kg/injection, schedule: Q01DX001 (ip), vehicle: distilled water + Tween-80): -12 % of control
T/C (endpoint: median tumor weight change, dose: 1000.0 mg/kg/injection, schedule: Q01DX001 (ip), vehicle: distilled water + Tween-80): -53 % of control
T/C (endpoint: median tumor weight change, dose: 2000.0 mg/kg/injection, schedule: Q01DX001 (ip), vehicle: distilled water + Tween-80): -71 % of control

CC1=CC(=NN=c2cc(C)n([O-])c(C)c2)C=C(C)[N+]1=O
T/C (endpoint: median tumor weight change, dose: 100.0 mg/kg/injection, schedule: Q01DX001 (ip), vehicle: suspension in saline): 76 % of control
T/C (endpoint: median tumor weight change, dose: 125.0 mg/kg/injection, schedule: Q01DX001 (ip), vehicle: saline with Tween-80): 118 % of control
T/C (endpoint: median tumor weight change, dose: 125.0 mg/kg/injection, schedule: Q01DX001 (ip), vehicle: saline): 55 % of control
T/C (endpoint: median tumor weight change, dose: 200.0 mg/kg/injection, schedule: Q01DX001 (ip), vehicle: suspension in saline): 85 % of control
T/C (endpoint: median tumor weight change, dose: 250.0 mg/kg/injection, schedule: Q01DX001 (ip), vehicle: saline): 117 % of control
T/C (endpoint: median tumor weight change, dose: 400.0 mg/kg/injection, schedule: Q01DX001 (ip), vehicle: suspension in saline): 80 % of control
T/C [7]: 94 % of control
T/C (endpoint: median tumor weight change, dose: 500.0 mg/kg/injection, schedule: Q01DX001 (ip), vehicle: saline): 100 % of control
T/C (endpoint: median tumor weight change, dose: 800.0 mg/kg/injection, schedule: Q01DX001 (ip), vehicle: suspension in saline): 40 % of control
T/C (endpoint: median tumor weight change, dose: 1000.0 mg/kg/injection, schedule: Q01DX001 (ip), vehicle: saline): 17 % of control

CCOC(=O)CNC(=O)CCCCSc1ncnc2nc[nH]c12
T/C (endpoint: mean tumor weight, dose: 20.0 mg/kg/injection, schedule: Q07DX005 (ip), vehicle: saline): 121 % of control
T/C (endpoint: mean tumor weight, dose: 40.0 mg/kg/injection, schedule: Q07DX005 (ip), vehicle: saline): 84 % of control
T/C (endpoint: mean tumor weight, dose: 80.0 mg/kg/injection, schedule: Q07DX005 (ip), vehicle: saline): 48 % of control
T/C (endpoint: mean tumor weight, dose: 160.0 mg/kg/injection, schedule: Q07DX005 (ip), vehicle: saline): 39 % of control
T/C (endpoint: mean tumor weight, dose: 320.0 mg/kg/injection, schedule: Q07DX005 (ip), vehicle: saline): 67 % of control
T/C (endpoint: mean tumor weight, dose: 640.0 mg/kg/injection, schedule: Q07DX005 (ip), vehicle: saline): 45 % of control
T/C (endpoint: median tumor weight (est.), dose: 20.0 mg/kg/injection, schedule: Q07DX004 (ip), vehicle: saline): 78 % of control
T/C (endpoint: median tumor weight (est.), dose: 40.0 mg/kg/injection, schedule: Q07DX004 (ip), vehicle: saline): 63 % of control
T/C (endpoint: median tumor weight (est.), dose: 80.0 mg/kg/injection, schedule: Q07DX004 (ip), vehicle: saline): 40 % of control
T/C (endpoint: median tumor weight (est.), dose: 160.0 mg/kg/injection, schedule: Q07DX004 (ip), vehicle: saline): 97 % of control
T/C (endpoint: median tumor weight (est.), dose: 320.0 mg/kg/injection, schedule: Q07DX004 (ip), vehicle: saline): 109 % of control

C/C(=N\NC(=S)N1CCN(c2ccccn2)CC1)c1ccccn1
T/C (endpoint: median tumor weight change, dose: 12.5 mg/kg/injection, schedule: Q01DX001 (ip), vehicle: other): 74 % of control
T/C (endpoint: median tumor weight change, dose: 25.0 mg/kg/injection, schedule: Q01DX001 (ip), vehicle: other): 76 % of control
T/C (endpoint: median tumor weight change, dose: 50.0 mg/kg/injection, schedule: Q01DX001 (ip), vehicle: other): 87 % of control
